Holding throughout (format): cell-based
Experiment [1] relates to Staphylococcus epidermidis 835 (MSSE). Nature of the experiment: MIC by broth microdilution, SE 835. The following applies: read-out: MIC SE 835. The source says:
(§1) As used herein, the term “minimum inhibitory concentration” (MIC) refers to the lowest concentration of an antibiotic that is needed to inhibit growth of a bacterial isolate in vitro. A common method for determining the MIC of an antibiotic is to prepare several tubes containing serial dilutions of the antibiotic, that are then inoculated with the bacterial isolate of interest.
(§2) Antibacterial activity in vitro is investigated by broth microdilution method in Meuller-Hinton broth as recommended by NCCLS. All strains tested are clinical isolates either sensitive or resistant to natural glycopeptides. MIC values were determined using the CLSI-recommended broth microdilution procedure (Clinical and Laboratoratory Standards Institute, Methods for Dilution Antimicrobial Susceptibility Tests for Bacteria That Grow Aerobically; Approved Standard-Seventh Edition.). Automated liquid handlers (Multidrop 384, Labsystems, Helsinki, Finland; Biomek 2000 and Multimek 96, Beckman Coulter, Fullerton Calif.) were used to conduct serial dilutions and liquid transfers.

The subject of experiment [2] is Enterococcus faecalis 848 (VRE). Nature of the experiment: MIC by broth microdilution, EFC 848. The settings on record: read-out: MIC EFC 848.
Source text: as §1, §2

Experiment [3] concerns Staphylococcus aureus 757 (MRSA). Nature of the experiment: MIC by broth microdilution, SA 757. The settings on record: read-out: MIC SA 757.
Source text: as §1, §2

Experiment [4] has as its system Streptococcus pyogenes 712 (penicillin sensitive). Nature of the experiment: MIC by broth microdilution, SPYO 712. The settings on record: read-out: MIC SPYO 712.
Source text: as §1, §2

For experiment [5], the system named is Staphylococcus aureus 100 (MSSA). In words: MIC by broth microdilution, SA 100. The following applies: read-out: MIC SA 100.
Source text: as §1, §2

For experiment [6], the system named is Staphylococcus epidermidis 831 (MRSE). In words: MIC by broth microdilution, SE 831. The following applies: read-out: MIC SE 831.
Source text: as §1, §2

The subject of experiment [7] is Enterococcus faecium 750 (vancomycin sensitive). Nature of the experiment: MIC by broth microdilution, EFCM 750. The following applies: read-out: MIC EFCM 750.
Source text: as §1, §2

Experiment [8] relates to Enterococcus faecium 752 (VRE). In words: MIC by broth microdilution, EFCM 752. The following applies: read-out: MIC EFCM 752.
Source text: as §1, §2

The test system of experiment [9] is Staphylococcus aureus 2012 (VISA). Nature of the experiment: MIC by broth microdilution, SA 2012. The settings on record: read-out: MIC SA 2012.
Source text: as §1, §2

The test system of experiment [10] is Enterococcus faecalis 101 (vancomycin sensitive). In words: MIC by broth microdilution, EFC 101. The settings on record: read-out: MIC EFC 101.
Source text: as §1, §2

Experiment [11] deals with Streptococcus pneumoniae 1195 (penicillin sensitive). In words: MIC by broth microdilution, SPNE 1195. The following applies: read-out: MIC SPNE 1195.
Source text: as §1, §2

Values after ≈ are worked out from the molar mass of the structure shown. Where two headings read alike, the source gives them in different places. Where only a bound is given, the exact number is not on record here.

As to `CCCCCCCCNC(=O)NC(=O)C[C@@H]1NC(=O)[C@H](NC(=O)[C@@H](CC(C)C)NC)[C@H](O)c2ccc(c(Cl)c2)Oc2cc3cc(c2O)Oc2ccc(cc2Cl)[C@@H](O)[C@H]2NC(=O)[C@H](NC(=O)[C@@H]3NC1=O)c1ccc(O)c(c1)-c1c(O)cc(O)cc1[C@@H](C(=O)NC1C3CC4CC(C3)CC1C4)NC2=O` (stereo partly shown) [Compound 23], the MIC in experiment [1] (Staphylococcus epidermidis 835 (MSSE), clinical isolate, Mueller-Hinton broth) worked out at 2 µg/mL (≈ 1.4 µM); in [2] (Enterococcus faecalis 848 (VRE), clinical isolate, Mueller-Hinton broth), 2 µg/mL (≈ 1.4 µM); in [3] (Staphylococcus aureus 757 (MRSA), clinical isolate, Mueller-Hinton broth) it was 2 µg/mL (≈ 1.4 µM); in [4] (Streptococcus pyogenes 712 (penicillin sensitive), clinical isolate, Mueller-Hinton broth), 0.25 µg/mL (≈ 0.175 µM); in experiment [5] (Staphylococcus aureus 100 (MSSA), clinical isolate, Mueller-Hinton broth), 2 µg/mL (≈ 1.4 µM); in [6] (Staphylococcus epidermidis 831 (MRSE), clinical isolate, Mueller-Hinton broth), 1 µg/mL (≈ 0.698 µM). In addition, the MIC in experiment [7] (Enterococcus faecium 750 (vancomycin sensitive), clinical isolate, Mueller-Hinton broth) stood at 1 µg/mL (≈ 0.698 µM); in [8] (Enterococcus faecium 752 (VRE), clinical isolate, Mueller-Hinton broth), 2 µg/mL (≈ 1.4 µM); in experiment [9] (Staphylococcus aureus 2012 (VISA), clinical isolate, Mueller-Hinton broth), 2 µg/mL (≈ 1.4 µM); in experiment [10] (Enterococcus faecalis 101 (vancomycin sensitive), clinical isolate, Mueller-Hinton broth), 2 µg/mL (≈ 1.4 µM); in experiment [11] (Streptococcus pneumoniae 1195 (penicillin sensitive), clinical isolate, Mueller-Hinton broth), 0.5 µg/mL (≈ 0.349 µM).
Consider `CN[C@H](CC(C)C)C(=O)N[C@H]1C(=O)N[C@@H](CC(N)=O)C(=O)N[C@H]2C(=O)N[C@H]3C(=O)N[C@H](C(=O)N[C@H](C(=O)O)c4cc(O)cc(O)c4-c4cc3ccc4O)[C@H](O)c3ccc(c(Cl)c3)Oc3cc2cc(c3O[C@@H]2O[C@H](CO)[C@@H](O)[C@H](O)[C@H]2O[C@H]2C[C@](C)(N)[C@H](O)[C@H](C)O2)Oc2ccc(cc2Cl)[C@H]1O` [Vancomycin, vancomycin], for which the MIC in experiment [1] (Staphylococcus epidermidis) was 2 µg/mL (≈ 1.38 µM); in experiment [2] (Enterococcus faecalis, VRE), more than 64 µg/mL; in experiment [3] (Staphylococcus aureus, MRSA), 1 µg/mL (≈ 0.69 µM); in [4] (Streptococcus pyogenes) it was 0.5 µg/mL (≈ 0.345 µM); in [5] (Staphylococcus aureus, MSSA) it was 1 µg/mL (≈ 0.69 µM); in experiment [6] (Staphylococcus epidermidis, MRSE), 2 µg/mL (≈ 1.38 µM). Moreover, the minimal inhibitory concentration (MIC) is 1 µg/mL (≈ 0.69 µM) in experiment [7] (Enterococcus faecium); more than 64 µg/mL in [8] (Enterococcus faecium, VRE); 8 µg/mL (≈ 5.52 µM) in experiment [9] (Staphylococcus aureus, VISA); 2 µg/mL (≈ 1.38 µM) in experiment [10] (Enterococcus faecalis); 0.25 µg/mL (≈ 0.173 µM) in experiment [11] (Streptococcus pneumoniae).

(Values after patent US20100216699A1, “SEMI-SYNTHETIC GLYCOPEPTIDES HAVING ANTIBACTERIAL ACTIVITY” (LEAD THERAPEUTICS, INC., priority 2009, published 2010).)
